Data on 2 molecules can be found in US8153385B2, “Target protein and target gene in drug designing and screening method” (Reverse Proteomics Research Institute Co., Ltd., priority 2004, dated 2012).

Each structure is given as a SMILES string.

The target in this test is T1, FLJ13397 clone-derived protein (CARP) (Homo sapiens, UniProt Q9H8M7).
T1 construct: A human full-length cDNA clone was expressed as a protein with an N-terminal His tag; His tag (pDEST17 Gateway vector) (N); made in house; host or cells: Escherichia coli BL21star(DE3)pLysS
T1 sequence (Q9H8M7 1-445): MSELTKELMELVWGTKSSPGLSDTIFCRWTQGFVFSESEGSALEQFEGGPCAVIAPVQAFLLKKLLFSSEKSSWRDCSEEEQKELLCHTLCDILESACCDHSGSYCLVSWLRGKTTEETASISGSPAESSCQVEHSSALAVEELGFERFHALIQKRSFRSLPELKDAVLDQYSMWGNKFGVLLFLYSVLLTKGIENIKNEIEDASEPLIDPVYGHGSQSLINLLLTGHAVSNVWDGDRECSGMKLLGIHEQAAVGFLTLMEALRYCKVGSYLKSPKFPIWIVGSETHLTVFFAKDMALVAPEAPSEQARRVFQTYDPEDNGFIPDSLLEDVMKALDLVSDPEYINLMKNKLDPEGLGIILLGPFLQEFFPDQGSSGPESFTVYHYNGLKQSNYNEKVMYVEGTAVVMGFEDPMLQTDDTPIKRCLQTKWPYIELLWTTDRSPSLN
Kind of test: SEC/MS (size exclusion chromatography / mass analysis) interaction analysis between FLJ13397 clone-derived protein and compounds. It is filed as binding.

[1] abbreviates: compound 1 μM, protein 0 μM (protein-free reference).
Setting [2] is: compound 1 μM, protein 23.75 μM.
Where [3] appears, read: compound 10 μM, protein 0 μM (protein-free reference).
Setting [4] is: compound 10 μM, protein 23.75 μM.
The mark [5] stands for this setting: compound 10 μM, protein 47.5 μM.
Setting [6] is: compound 100 μM, protein 0 μM (protein-free reference).
[7] abbreviates: compound 100 μM, protein 23.75 μM.
Where [8] appears, read: compound 100 μM, protein 47.5 μM.
Setting [9] is: compound 250 μM, protein 0 μM (protein-free reference).
The mark [10] stands for this setting: compound 250 μM, protein 23.75 μM.
[11] abbreviates: compound 250 μM, protein 47.5 μM.

On to `c1ccc2[nH]c(-c3cscn3)nc2c1` [Thiabendazole], for which the “spectrum intensity of the extracted mass range (compound in SEC spin column filtrate)” value (shortened to “spectrum intensity”) under setting [1] was 61442947; the “spectrum intensity” value under setting [2] was 42216896; the “spectrum intensity” value (compound 1 μM, protein 47.5 μM) is 47595391; the “spectrum intensity” value under setting [3] is on record as 21903023; the “spectrum intensity” value under setting [4] came to 45510612; the “spectrum intensity” value under setting [5] came out at 41434122. Further, the “spectrum intensity” value by setting is: under setting [6], 60344905; under setting [7], 64811390; under setting [8], 63585895; under setting [9], 40530147; under setting [10], 93902905; under setting [11], 125101370.
Take `OC(c1ccccc1)(c1ccccc1)C1CCNCC1` [α,α-Diphenyl-4-piperidinomethanol]: the “spectrum intensity” value under setting [1] came out at 1354498; the “spectrum intensity” value under setting [2] was determined as 1217276; the “spectrum intensity” value (compound 1 μM, protein 47.5 μM) was determined as 1961004; the “spectrum intensity” value under setting [3] amounted to 14109120; the “spectrum intensity” value under setting [4] was found to be 12131847; the “spectrum intensity” value under setting [5] was 15743409. Moreover, the “spectrum intensity” value is 106849236 under setting [6]; 219345185 under setting [7]; 287013305 under setting [8]; 400374746 under setting [9]; 620399620 under setting [10]; 1037919 under setting [11].
